Legend:
ACAT2 = settings: cited from earlier work
[1] = tested on: cholesteryl ester synthesis in peritoneal macrophages; assay: 3H-oleate incorporation into cholesteryl esters in peritoneal macrophages; format: cell-based, mouse; settings: 5 μM, 16 hours, agLDL, macrophages from wild-type or LyzCre+/+ mice
Procedure: Peritoneal macrophages were isolated as previously described (Sakashita et al. 2010. J. Lipid Res. 51:1263-1272), four days after injecting 1 ml of thioglycolate (TG) (3% wt/vol; Sigma Chemical Co.). Peritoneal leukocytes were isolated and incubated in 6-well culture dishes with 2 ml/well DMEM medium with 10% FBS at 37° C. for two hours. After washing with PBS two times, the firmly attached macrophages were used to measure ACAT1 mRNA and protein level.
Experiments were then performed to confirm that ACAT1 was specifically deleted in macrophages of the Acat1^−M/−M mouse. Peritoneal macrophages were isolated from Acat1^−M/−M and Acat1+^M/+M mice four days after thioglycolate injection. The cells were incubated with aggregated LDL (agLDL), an agent known to provide large amount of cholesterol to macrophages (Khoo et al. 1988. Arteriosclerosis 8:348-358), with or without an ACAT inhibitor at a saturating concentration (Compound F12511; at 5 μM) (Chang et al. 2000. J. Biol. Chem. 275:28083-28092), for 16 hours, followed by ^3H-oleate incorporation to measure the biosynthesis of labeled cholesteryl esters. […] Next, ACAT1 mRNA and protein content were measured in wild-type and Acat1^−M/−M macrophages. […] In wild-type mice, ACAT1 is abundantly expressed in the adrenal glands.

hACAT-2 = target: T1, hACAT-2 (Homo sapiens, UniProt O75908); settings: cited from earlier work
T1 sequence (O75908 1-522): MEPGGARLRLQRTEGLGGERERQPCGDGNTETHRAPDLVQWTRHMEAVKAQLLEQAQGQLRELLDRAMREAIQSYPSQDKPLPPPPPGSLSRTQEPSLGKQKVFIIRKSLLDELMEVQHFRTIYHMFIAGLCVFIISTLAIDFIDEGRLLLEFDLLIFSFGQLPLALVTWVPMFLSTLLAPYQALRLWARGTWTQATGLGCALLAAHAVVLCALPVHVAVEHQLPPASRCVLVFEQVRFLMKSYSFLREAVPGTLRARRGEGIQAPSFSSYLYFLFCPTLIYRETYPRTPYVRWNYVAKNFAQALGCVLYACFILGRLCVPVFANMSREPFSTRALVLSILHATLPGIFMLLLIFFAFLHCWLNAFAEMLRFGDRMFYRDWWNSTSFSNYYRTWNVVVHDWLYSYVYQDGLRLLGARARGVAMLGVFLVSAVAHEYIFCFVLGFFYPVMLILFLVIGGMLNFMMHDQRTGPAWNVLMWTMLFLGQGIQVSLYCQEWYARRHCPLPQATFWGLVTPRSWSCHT

ACAT1 = settings: cited from earlier work
mouse ACAT1 = assay: ACAT1 protein by western blot in transfected NIH-3T3 mouse fibroblasts; format: cell-based; settings: NIH-3T3, rAAV vector transfection, 48 hours, GFP-positive cells
Text: NIH-3T3 mouse fibroblasts were transiently transfected with one of several rAAV vectors encoding EmGFP and microRNA (miR) #52, #53, #54 or #55. Forty-eight hours post-transfection, GFP-positive cells were harvested by FACS. GFP-positive cells were washed then lysed in 10% SDS and syringe homogenized. Twenty microgram of protein per sample was subjected to SDS-PAGE. After western blot analysis, bands were quantified with ImageJ. ACAT1 intensity was normalized to GAPDH as a loading control and expressed as relative intensity.
Four different siRNA molecules (#52-#55; Table 3) targeting the mouse Acat1 gene were inserted into an endogenous mouse microRNA (miR) scaffold using Invitrogen's RNAi design tool. The artificial miRs were ligated into the mammalian expression vector pcDNA6.2-GW/EmGFP-miR. […] The miRs were delivered to the cells using a standard cDNA transfection protocol.

blood myeloid cells = assay: Blood myeloid cells (CD11b+Gr1+) after 5-FU injection, flow cytometry; format: in vivo, mouse; settings: 150 mg/kg single injection, six days post-injection
Procedure: It also had shown previously that global Acat1^−/− induces leukocytosis (Huang et al. 2013. Arterioscl. Thromb. Vasc. Biol. 33:2081-2087). Therefore, experiments were performed to compare the hematopoietic recovery of wild-type, global Acat1^−/−, and Acat1^−M/−M mice after injection of the myelo-suppressive agent 5-fluorouracil (5-FU; 150 mg/kg) (Lindner et al. 1960. Cancer Res. 20:497-502). Mice from all three genotypes (7-9 weeks of age) were administered a single 5-FU injection. After injection, blood myeloid cells (CD11b+Gr1+) isolated from these mice were monitored by flow cytometry. […] Six days post-injection, almost all of the myeloid cells in wild-type, Acat1^−/− and Acat1^−M/−M mice were depleted by 5-FU.

Molecule	IC50 (ACAT2) [µM]	also measured
CCCCCCCCCNc1cc(-c2ccccc2)nn1-c1ccccc1 [compound 16]	97	
CCCCCCCCCCCCS[C@H](C(=O)Nc1cc(C)c(O)c(C)c1C)c1ccccc1 [Eflucimibe (F12511)]	0.11	cholesteryl ester synthesis rate [1]: drastically reduced
CC(C)c1cccc(C(C)C)c1NC(=O)CC(=O)C(Cc1ccccc1)Cc1ccc(OC(=O)CCCCCCN2CCCCCC2=O)cc1 (stereo not shown) [Compound 1C]	0.53	
CC(C)c1cccc(C(C)C)c1NC(=O)CC(=O)C(Cc1ccccc1)Cc1ccc(O)cc1 (stereo not shown) [Compound 1B]	1.5	
COc1ccc([C@@H](O)[C@@H](C)Oc2ccc([C@H]3O[C@H](c4ccc(O[C@H](C)[C@H](O)c5ccc6c(c5)OCO6)c(OC)c4)[C@H](C)[C@H]3C)cc2OC)cc1OC [manassantin B]		inhibition of hACAT-2 (hACAT-2; at 1 mM): 32%
CCCCCCCCC(=O)Nc1cc(-c2ccccc2)nn1-c1ccccc1 [compound 14]	75	
CCOC(=O)OC(=O)OCC [diethyl pyrocarbonate]	170	IC50 (ACAT1): 44 µM; greater activity on ACAT1 compared to ACAT-2 (ACAT1): 4 fold
CCCCCCCCC(=O)Nc1ccccc1-c1ccccc1 [compound 2]	414	
CCCCCCCC(=O)Nc1ccccc1-c1ccccc1 [compound 1]	230	
miR Negative Control: negative control miR 5′-TACTGCGCGTGGAGACG-3′ (SEQ ID NO:17), matches no known vertebrate gene (chemistry not given here)		Relative Intensity (ACAT1 normalized to GAPDH) (mouse ACAT1): 1.02
O=c1[nH]cc(F)c(=O)[nH]1 [5-FU, 5-fluorouracil]		depletion of blood myeloid cells (blood myeloid cells): almost all
CCCCCCCC(=O)Nc1cc(-c2ccccc2)nn1-c1ccccc1 [compound 13]	53	
saucerneol B		IC50 (hACAT-2): 124 µM

Source: patent publication US9856478B2, “Method for selectively inhibiting ACAT1 in the treatment of obesity, metabolic syndrome, and atherosclerosis” (Trustees of Dartmouth College, priority 2013, dated 2018)
